The record followed here is patent US20080200334A1, “Method For Enhancing The Effectiveness Of Ethaboxam” (BASF Aktiengesellschaft, priority 2004, published 2008).

Where two headings read alike, the source gives them in different places.

In one test the test system is Pyricularia oryzae. Format: cell-based.
Test [1] concerns Plasmopara viticola. Kind of test: Use Example 1: peronospora of grapevines, greenhouse, 7 days of protective application. Format: in vivo. Particulars: grapevine leaves sprayed 7 days before inoculation. On the procedure:
The active compounds were prepared jointly or separately as a stock solution with 25 mg of active compound which was made up to 10 ml using a mixture of acetone and/or DMSO and the emulsifier Uniperol® EL (wetting agent having emulsifying and dispersing action based on ethoxylated alkylphenols) in a volume ratio of solvent/emulsifier of 99 to 1. The mixture was then made up with water to 100 ml. This stock solution was diluted with the solvent/emulsifier/water mixture described to the concentration of active compounds stated below.
The active compounds pyraclostrobin, famoxadone, fluazinam and zoxamide were used as commercially available formulations.
The visually determined percentages of infected leaf areas were converted into efficacies in % of the untreated control:
The efficacy (E) is calculated as follows using Abbot's formula:
An efficacy of 0 means that the infection level of the treated plants corresponds to that of the untreated control plants; an efficacy of 100 means that the treated plants were not infected.
The expected efficacies of mixtures of active compounds were determined using Colby's formula (Colby, S. R. “Calculating synergistic and antagonistic responses of herbicide combinations”, Weeds, 15, 20-22, 1967) and compared with the observed efficacies.
E=x+y−x·y/100 • E expected efficacy, expressed in % of the untreated control, when using the mixture of the active compounds A and B at the concentrations a and b • x efficacy, expressed in % of the untreated control, when using the active compound A at the concentration a • y efficacy, expressed in % of the untreated control, when using the active compound B at the concentration b
Effectiveness Against Peronospora of Grapevines Caused by Plasmopara viticola at 7 days of Protective Application
Leaves of potted vines were sprayed to runoff point with an aqueous suspension having the concentration of active compound given below. To be able to assess the persistency of the substances, the plants were, after the spray coating had dried on, placed in a greenhouse for 7 days. Only then were the leaves inoculated with an aqueous zoospore suspension of Plasmopara viticola. The grapevines were then initially placed in a water-vapor-saturated chamber at 24° C. for 48 hours and then in a greenhouse at temperatures between 20 and 30° C. for 5 days. After this period of time the plants were, to promote sporangiophore eruption, again placed in a humid chamber for 16 hours. The extent of the development of the infection on the undersides of the leaves was then determined visually.

A further test has as its system Phytophthora infestans. Format: in vivo. Particulars: tomato leaves sprayed 3 days before inoculation, rated after 6 days.
Another test concerns Botrytis cinerea. Kind of test: Use Example 4: gray mold, microtiter test. Format: cell-based. The settings on record: day 7 after inoculation, 405 nm.
The next test relates to Septoria tritici. Briefly: Use Example 6: Septoria speckled leaf blotch, microtiter test. Format: cell-based. Particulars: day 7 after inoculation, 405 nm.
The subject of test [2] is Plasmopara viticola. Format: in vivo.

With `CC1(c2ccc(Oc3ccccc3)cc2)OC(=O)N(Nc2ccccc2)C1=O` (racemic) [famoxadone II-11, (RS)-3-anilino-5-methyl-5-(4-phenoxyphenyl)-1,3-oxazolidine-2,4-dione], the “Observed effect (%)” value with Pyricularia oryzae (0.5 ppm) was 64%.
Regarding `CCNC(=O)NC(=O)/C(C#N)=N/OC` [cymoxanil II-3, cymoxanil], the “Observed effect (%)” value with Plasmopara viticola [1] (4 ppm) stood at 0%.
Take `COc1ccc(C(=CC(=O)N2CCOCC2)c2ccc(Cl)cc2)cc1OC` [dimethomorph II-2, 3-(4-chlorophenyl)-3-(3,4-dimethoxyphenyl)-1-morpholin-4-ylpropenone]: the “Observed effect (%)” value in the test with Phytophthora infestans (4 ppm) stood at 0%; with Phytophthora infestans (16 ppm), 22%; in the test on Plasmopara viticola [1] (4 ppm), 0%; in the test with Botrytis cinerea (63 ppm), 9%; in the test with Pyricularia oryzae (4 ppm) it was 6%.
With `N#Cc1sc2c(=O)c3ccccc3c(=O)c=2sc1C#N` [dithianon II-15, 5,10-dioxo-5,10-dihydronaphtho[2,3-b][1,4]dithiin-2,3-dicarbonitrile], the “Observed effect (%)” value with Septoria tritici (0.125 ppm) was 35%.
With `CCNc1nc(CC)c(C(=O)NC(C#N)c2cccs2)s1` (centres unmarked) [ethaboxam I, N-(cyano-2-thienylmethyl)-4-ethyl-2-(ethylamino)-5-thiazolecarboxamide], the “Observed effect (%)” value with Septoria tritici (0.125 ppm) came out at 0%; in the test on Septoria tritici (4 ppm), 0%; in the test on Septoria tritici (16 ppm) it was 0%; in the test on Plasmopara viticola [2] (1 ppm) it was 61%; with Phytophthora infestans (16 ppm), 33%; in the test on Plasmopara viticola [1] (1 ppm), 0%. Further, the “Observed effect (%)” value amounted to 22% in the test with Plasmopara viticola [1] (4 ppm); 44% with Plasmopara viticola [1] (16 ppm); 0% in the test on Botrytis cinerea (1 ppm); 0% with Botrytis cinerea (2 ppm); 0% in the test with Botrytis cinerea (4 ppm); 0% in the test with Botrytis cinerea (32 ppm). Besides, the “Observed effect (%)” value in the test with Botrytis cinerea (63 ppm) amounted to 11%; in the test on Pyricularia oryzae (0.125 ppm), 0%; in the test with Pyricularia oryzae (0.25 ppm), 0%; in the test with Pyricularia oryzae (8 ppm), 18%; in the test on Pyricularia oryzae (16 ppm), 41%; in the test with Pyricularia oryzae (63 ppm) it was 56%.
For the molecule `O=[N+]([O-])c1cc(C(F)(F)F)c(Cl)c([N+](=O)[O-])c1Nc1ncc(C(F)(F)F)cc1Cl` [fluazinam II-4, 3-chloro-N-[3-chloro-2,6-dinitro-4-(trifluoromethyl)phenyl]-5-(trifluoromethyl)-2-pyridinamine], in the test on Plasmopara viticola [1] (63 ppm), the “Observed effect (%)” value amounted to 22%.
As to `COc1ccc(C(=CC(=O)N2CCOCC2)c2ccc(F)cc2)cc1OC` [flumorph II-8, 3-(4-fluorophenyl)-3-(3,4-dimethoxyphenyl)-1-morpholin-4-ylpropenone], the “Observed effect (%)” value in the test on Botrytis cinerea (63 ppm) was found to be 16%; in the test on Pyricularia oryzae (16 ppm), 11%.
`O=C1c2ccccc2C(=O)N1SC(Cl)(Cl)Cl` [folpet II-10, folpet]: the “Observed effect (%)” value in the test on Septoria tritici (4 ppm) is reported as 54%; with Botrytis cinerea (1 ppm) it was 38%; in the test on Pyricularia oryzae (1 ppm), 20%.
Turning to `COC(=O)N(OC)c1ccccc1COc1ccn(-c2ccc(Cl)cc2)n1` [pyraclostrobin II-6, methyl N-{2-[1-(4-chlorophenyl)-1H-pyrazol-3-yloxymethyl]phenyl}(N-methoxy)carbamate], the “Observed effect (%)” value in the test with Botrytis cinerea (0.5 ppm) stood at 22%.
For “ethyl phosphonate aluminum [fosethyl-Al II-12]”, in the test with Pyricularia oryzae, the “Observed effect (%)” value was 8%.
“manganese ethylenebis(dithiocarbamate) [maneb II-5]”: the “Observed effect (%)” value in the test on Plasmopara viticola [2] (in vivo) is given as 0%.
In the case of “manganese ethylenebis(dithiocarbamate) zinc complex [mancozeb II-9]”, the “Observed effect (%)” value with Septoria tritici (1 ppm) is 29%; in the test on Botrytis cinerea (4 ppm) it was 30%.
Regarding “zinc ammoniate ethylenebis(dithiocarbamate) [metiram II-14]”, the “Observed effect (%)” value in the test on Septoria tritici (4 ppm) came to 19%.
